Measured values published in patent US9150558B2, “Nicotine receptor targeted compounds and compositions” (University of Florida Research Foundation, priority 2011, dated 2015).
Where two headings read alike, the source gives them in different places.

Tests used:
[1] = target: T1, α7 Receptor (alpha7 nAChR) (Rattus norvegicus, UniProt Q05941); experiment: Displacement binding of 125I-α-bungarotoxin to rat brain membranes (α7 nAChR); conditions: for α7/α4β2 Selectivity (Selectivity factor): Ki for alpha4beta2 binding divided by Ki for alpha7 binding, rat brain; for Enantiomeric Selectivity: given once per enantiomer pair, on the line of the first enantiomer, rat α7 binding
T1 construct: protein concentration of the rat brain membranes contained in the pellet; tissue Pel-Freeze Biologicals; host or cells: whole male Sprague-Dawley rat brain membranes
T1 sequence (Q05941 23-502): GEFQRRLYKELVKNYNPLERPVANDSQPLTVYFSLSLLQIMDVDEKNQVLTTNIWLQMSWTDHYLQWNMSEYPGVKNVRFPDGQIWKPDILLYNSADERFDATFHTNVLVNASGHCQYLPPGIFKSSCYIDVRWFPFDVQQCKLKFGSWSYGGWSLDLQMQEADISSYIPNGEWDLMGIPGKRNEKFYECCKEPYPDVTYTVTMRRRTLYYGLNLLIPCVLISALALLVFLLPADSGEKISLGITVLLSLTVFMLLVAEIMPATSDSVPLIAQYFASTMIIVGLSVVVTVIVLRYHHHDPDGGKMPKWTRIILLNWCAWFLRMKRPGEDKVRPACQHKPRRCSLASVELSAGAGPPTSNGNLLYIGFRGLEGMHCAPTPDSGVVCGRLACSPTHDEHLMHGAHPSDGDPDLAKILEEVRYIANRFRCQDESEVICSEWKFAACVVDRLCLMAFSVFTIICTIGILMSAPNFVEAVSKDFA
Excerpt: As used herein, the term “selectively binds,” “selective binding,” and cognates thereof refer to anabaseine compounds that preferentially bind one type of nicotinic acetylcholine receptor relative to another type of acetylcholine receptor (e.g., α7 nAChR versus the α4β2 nAChR). Because Ki is an inverse measure of affinity, binding selectivity of a compound for the α7 nAChR versus the α4β2 nAChR is expressed by dividing the Ki for binding to the α4β2 nAChR by the Ki for binding to the α7 nAChR. In one embodiment, a compound of the invention selectively binds α7 nAChR compared to α4β2 nAChR. The selectivity of a compound of the invention for α7 nAChR over α4β2 nAChR is at least 2, 3, 4, 5, 6, 7, 8, 9, 10, 11, 12, 13, 14, 15, or more. In another embodiment, a compound of the invention selectively binds α4β2 nAChR compared to α7 nAChR. The selectivity of a compound of the invention for α4β2 nAChR over α7 nAChR is at least 2, 3, 4, 5, 6, 7, 8, 9, 10, 11, 12, 13, 14, 15, or more. Binding to the α7 and α4β2 nAChR (including relative binding to each of these receptors) can be determined by the skilled artisan using the methods known in the art, in particular in view of the teachings provided herein. In particular, the assays used to determine selective binding are according to Marks and Collins for [^125I]alpha-bungarotoxin experiments (for alpha7 receptor binding) and a modified method by Pabreza et al. for [^3H]cytisine experiments (for α4β2), used as described in US 2009/0215705.
(§1) Whole male Sprague-Dawley rat brains (Pel-Freeze Biologicals, Rogers, Ariz.) were homogenized with a 30 ml Wheaton (location) glass homogenizing tube and pestle in binding saline (120 mM NaCl, 5 mM KCl, 2 mM CaCl2, 1 mM MgCl2, 50 mM Tris-TrisHCl buffer, pH 7.4). After the homogenate was centrifuged at 11,000 rpm (convert to ×G) for a 10 min, the resulting pellet was resuspended in fresh binding saline and homogenized and centrifuged again. A protein assay (BCA, Pierce, Rockford, Ill.) was then performed to obtain the protein concentration of the rat brain membranes contained in the pellet, which was stored at −85° C. before use.
Radioligands used in the displacement binding assays were obtained from Perkin Elmer Life and Analytical Sciences (Boston, Mass.). ^3H-Cytisine was used to selectively bind to alpha4beta2 nAChRs and ^125I-α-bungarotoxin (α-Btx) for alpha? nAChRs. ^3H-Cytisine (34 Ci/mmol) experiments were performed according to Flores et al. (1992) with a few minor alterations, specifically that the incubation time was increased to four hours at 4° C. to assure binding equilibrium. The ^125I-α-Btx (136 Ci/mmol) experiments involved 37° C. incubation for three hours to assure equilibration. Both radioligands were generally tested at final concentrations of 1 nM. Membranes at the above mentioned concentrations were suspended in binding saline containing 2 mg/ml of bovine serum albumin (Sigma, St. Louis, Mo.) to reduce non-specific binding. For each radioligand, nonspecific binding was measured in the presence of a final concentration of 1 mM (S)-nicotine hydrogen tartrate salt (Sigma, St. Louis, Mo.). After incubation, radioligand bound to membranes in 48 tubes was rapidly collected by vacuum filtration using a Brandel cell harvester (Gaithersburg, Md.) and Whatman GF/C glass fiber filters that were pre-soaked in 0.5% polyethylenimine for 45 minutes to reduce nonspecific binding. The radiolabeled membranes were rapidly washed three times with 3 ml ice-cold binding saline to separate bound from free radioligand. Filters containing ^3H-cytisine bound membranes were placed in 20 ml scintillation tubes and suspended in 8 mls of 30% Scintisafe scintillation fluid (Fisher), then counted in a Beckman LS-6500 liquid scintillation counter (Fullerton, Calif.). Filters containing ^125I-α-Btx bound membranes were placed in 4 ml scintillation vials and counted in a Beckman 5500B gamma counter (Fullerton, Calif.). […]

[2] = target: T2, α4β2 Receptor (alpha4beta2 nAChR) (Rattus norvegicus, UniProt P09483+P12390); experiment: Displacement binding of 3H-cytisine to rat brain membranes (α4β2 nAChR)
T2 construct: protein concentration of the rat brain membranes contained in the pellet; tissue Pel-Freeze Biologicals; host or cells: whole male Sprague-Dawley rat brain membranes
T2 sequence (P09483 31-630): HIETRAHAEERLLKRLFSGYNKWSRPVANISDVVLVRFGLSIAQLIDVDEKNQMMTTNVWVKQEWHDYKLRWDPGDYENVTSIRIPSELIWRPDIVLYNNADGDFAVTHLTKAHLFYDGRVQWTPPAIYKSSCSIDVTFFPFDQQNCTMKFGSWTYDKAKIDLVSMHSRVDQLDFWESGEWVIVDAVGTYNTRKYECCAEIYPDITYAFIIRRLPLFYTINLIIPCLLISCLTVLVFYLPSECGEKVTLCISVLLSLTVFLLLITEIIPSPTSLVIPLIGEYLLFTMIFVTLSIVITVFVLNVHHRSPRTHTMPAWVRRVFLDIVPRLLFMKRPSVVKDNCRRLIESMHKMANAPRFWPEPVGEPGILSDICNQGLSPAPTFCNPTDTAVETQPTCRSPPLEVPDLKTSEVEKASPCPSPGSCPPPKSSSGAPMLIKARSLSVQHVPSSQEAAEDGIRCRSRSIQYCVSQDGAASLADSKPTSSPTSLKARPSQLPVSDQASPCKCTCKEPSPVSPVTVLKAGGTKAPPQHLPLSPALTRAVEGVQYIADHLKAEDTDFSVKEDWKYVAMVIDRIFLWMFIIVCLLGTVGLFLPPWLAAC
T2 sequence (P12390 25-500): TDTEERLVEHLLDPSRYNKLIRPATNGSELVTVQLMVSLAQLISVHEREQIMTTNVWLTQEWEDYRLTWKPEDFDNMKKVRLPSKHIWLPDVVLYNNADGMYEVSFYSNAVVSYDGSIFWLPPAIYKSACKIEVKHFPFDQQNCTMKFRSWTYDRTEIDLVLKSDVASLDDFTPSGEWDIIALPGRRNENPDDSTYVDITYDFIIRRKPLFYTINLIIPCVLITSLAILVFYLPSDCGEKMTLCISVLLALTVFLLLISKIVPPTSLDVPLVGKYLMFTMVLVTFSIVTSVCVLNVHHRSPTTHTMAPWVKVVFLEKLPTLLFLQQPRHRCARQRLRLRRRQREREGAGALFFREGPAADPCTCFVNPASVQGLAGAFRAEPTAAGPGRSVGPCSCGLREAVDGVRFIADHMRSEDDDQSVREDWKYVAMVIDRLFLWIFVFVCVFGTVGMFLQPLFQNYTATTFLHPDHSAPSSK
Method: as §1
Radioligands used in the displacement binding assays were obtained from Perkin Elmer Life and Analytical Sciences (Boston, Mass.). ^3H-Cytisine was used to selectively bind to alpha4beta2 nAChRs and ^125I-α-bungarotoxin (α-Btx) for alpha? nAChRs. ^3H-Cytisine (34 Ci/mmol) experiments were performed according to Flores et al. (1992) with a few minor alterations, specifically that the incubation time was increased to four hours at 4° C. to assure binding equilibrium. The ^125I-α-Btx (136 Ci/mmol) experiments involved 37° C. incubation for three hours to assure equilibration. Both radioligands were generally tested at final concentrations of 1 nM. Membranes at the above mentioned concentrations were suspended in binding saline containing 2 mg/ml of bovine serum albumin (Sigma, St. Louis, Mo.) to reduce non-specific binding. For each radioligand, nonspecific binding was measured in the presence of a final concentration of 1 mM (S)-nicotine hydrogen tartrate salt (Sigma, St. Louis, Mo.). After incubation, radioligand bound to membranes in 48 tubes was rapidly collected by vacuum filtration using a Brandel cell harvester (Gaithersburg, Md.) and Whatman GF/C glass fiber filters that were pre-soaked in 0.5% polyethylenimine for 45 minutes to reduce nonspecific binding. The radiolabeled membranes were rapidly washed three times with 3 ml ice-cold binding saline to separate bound from free radioligand. Filters containing ^3H-cytisine bound membranes were placed in 20 ml scintillation tubes and suspended in 8 mls of 30% Scintisafe scintillation fluid (Fisher), then counted in a Beckman LS-6500 liquid scintillation counter (Fullerton, Calif.). Filters containing ^125I-α-Btx bound membranes were placed in 4 ml scintillation vials and counted in a Beckman 5500B gamma counter (Fullerton, Calif.).
Displacement assay binding data were analyzed using GraphPad Prism software (San Diego, Calif.). The mean counts per minute values for each concentration of a given compound concentration were obtained from 4 replicates. The data were fitted to a sigmoidal concentration response curve from which the Hill slope (n) and IC50 (X) values were estimated: Y=Bottom+(Top−Bottom)/(1+10^(Log IC50-X)n) Here, Top=maximal specific binding of radioligand at the top of the curve and Bottom=minimum specific binding observed at high concentrations of the displacing ligand. […] Results and Discussion

[3] = rat brain membranes, 3H-cytisine 1 nM, 4° C. four hours, read-out: α4β2 Receptor Rat Ki
[4] = rat brain membranes, 125I-α-Btx 1 nM, 37° C. three hours, read-out: α7 Receptor Rat Ki

In the case of `Oc1ccc(C=C2CCCN=C2c2cccnc2)cc1` [Compound 3, reference compound], the “α7/α4β2 Selectivity (Selectivity factor)” value [1] is reported as 1.2 and the Ki [2, 3] is reported as 450 nM.

With `c1cncc(C2=NCCCC2)c1` [Compound 1, anabaseine, reference compound] the Ki [1] was 290 nM, the “α7/α4β2 Selectivity (Selectivity factor)” value [1] was 0.26 and the Ki [2] was 76 nM.

In the case of `COc1ccc(/C=C2/C(c3cccnc3)=N[C@H]3CC[C@@H]2C3)c(OC)c1` [Compound 12, (1S,5R,E)-4-(2,4-dimethoxybenzylidene)-3-(pyridin-3-yl)-2-azabicyclo[3.2.1]oct-2-ene], the Ki [1] is reported as 16.4 nM, the “α7/α4β2 Selectivity (Selectivity factor)” value [1] is reported as 13 and the “Enantiomeric Selectivity” value [1] is reported as 270. It also gave a Ki [2, 3] of 219 nM.

In the case of `COc1ccc(C=C2C(c3cccnc3)=NC(C)CC2C)c(OC)c1` (stereo not shown) [Compound 10], the “α7/α4β2 Selectivity (Selectivity factor)” value [1] is reported as 1.3, the “Enantiomeric Selectivity” value [1] is reported as 11 and the Ki [1, 4] is reported as 37.6 nM. For the same molecule, the Ki [2, 3] was 49.8 nM.

`COc1ccc(C=C2CC(C)CN=C2c2cccnc2)c(OC)c1` (stereo not shown) [Compound 7] gave a Ki [1] of 1500 nM.

With `COc1ccc(/C=C2\CCCN=C2c2cccnc2)c(OC)c1` [Compound 2, 3-(2,4-dimethoxybenzylidene)-anabaseine, reference compound] the “α7/α4β2 Selectivity (Selectivity factor)” value [1] was 1.91.

With `COc1ccc(C=C2CC[C@@H](C)N=C2c2cccnc2)c(OC)c1` [Compound 9, 3-(DMXB)-6(R)-methyl-anabaseine] the Ki [1] was 401 nM, the “α7/α4β2 Selectivity (Selectivity factor)” value [1] was 0.86 and the Ki [2, 3] was 344 nM.

With `Nc1ccc(/C=C2/C(c3cccnc3)=N[C@H]3CC[C@@H]2C3)cc1` [Compound 16, 3-(4-Aminobenzylidene)-4(R),6(S)-ethylene-anabaseine] the Ki [1] was 3.43 nM, the “α7/α4β2 Selectivity (Selectivity factor)” value [1] was 9.9 and the Ki [2] was 34.1 nM.

`COc1ccc(/C=C2\CC[C@H](C)N=C2c2cccnc2)c(OC)c1` [Compound 8, 3-(2,4-Dimethoxybenzylidene)-6(S)-methyl-anabaseine] was tested, and the Ki [1] was 208 nM, the “α7/α4β2 Selectivity (Selectivity factor)” value [1] was 2.8 and the “Enantiomeric Selectivity” value [1] was 3.3. It also gave a Ki [2, 3] of 588 nM.

With `COc1ccc(C=C2CC(C)CN=C2c2cccnc2)c(OC)c1` (stereo not shown) [Compound 6] the “Enantiomeric Selectivity” value [1] was 6.8 and the Ki [1, 4] was 220 nM.

With `COc1ccc(C=C2C(c3cccnc3)=NCC[C@H]2C)c(OC)c1` [Compound 4, 3-(DMXB)-4(R)-methyl-anabaseine] the Ki [1] was 62 nM, the “α7/α4β2 Selectivity (Selectivity factor)” value [1] was 2.5 and the “Enantiomeric Selectivity” value [1] was 2.0. The Ki [2, 3] was 153 nM.

With `COc1ccc(/C=C2/C(c3cccnc3)=N[C@H](C)C[C@@H]2C)c(OC)c1` [Compound 11] the “α7/α4β2 Selectivity (Selectivity factor)” value [1] was 1.5, the Ki [1, 4] was 409 nM and the Ki [2, 3] was 610 nM.

With `Oc1ccc(/C=C2/C(c3cccnc3)=N[C@H]3CC[C@@H]2C3)cc1` [Compound 14, 4-((E)-((1S,5R)-3-(pyridin-3-yl)-2-azabicyclo[3.2.1]oct-2-en-4-ylidene)methyl)phenol] the Ki [1] was 34.1 nM, the “α7/α4β2 Selectivity (Selectivity factor)” value [1] was 2.1 and the Ki [2] was 72.5 nM.

With `C[C@H]1CC/C(=C\c2ccc(N)cc2)C(c2cccnc2)=N1` [Compound 15, 3-(4-Aminobenzylidene)-6(S)-methyl-anabaseine] the Ki [1] was 73 nM, the “α7/α4β2 Selectivity (Selectivity factor)” value [1] was 4.3 and the Ki [2, 3] was 314 nM.

`COc1ccc(/C=C2/C(c3cccnc3)=N[C@@H]3CC[C@H]2C3)c(OC)c1` [Compound 13, (1R,5S,E)-4-(2,4-dimethoxybenzylidene)-3-(pyridin-3-yl)-2-azabicyclo[3.2.1]oct-2-ene] was tested, and the Ki [1] was 4400 nM, the “α7/α4β2 Selectivity (Selectivity factor)” value [1] was 0.079 and the Ki [2, 3] was 347 nM.

`COc1ccc(/C=C2/C(c3cccnc3)=NCC[C@@H]2C)c(OC)c1` [Compound 5, 3-(2,4-Dimethoxybenzylidene)-4(S)-methyl-anabaseine] was tested, and the Ki [1] was 125 nM, the “α7/α4β2 Selectivity (Selectivity factor)” value [1] was 1.5 and the Ki [2, 3] was 191 nM.
